Results published in patent US9801901B2, “Alginate oligomers for use in overcoming multidrug resistance in bacteria” (priority 2009, dated 2017).
Converted amounts (≈) assume the structure as drawn.

Columns and labels:
Experiment in all cases: MIC-assay, Mueller-Hinton broth with G-block alginate, 384-well, OD600
[1] = tested on: Pseudomonas aeruginosa (MDR 301, PSA, V2)
[2] = tested on: Pseudomonas aeruginosa (R22, PSA, V1)
[3] = tested on: Burkholderia cepacia (LMG18941, ATCC-BAA-246)
[4] = tested on: Acinetobacter lwoffii (6056, V22)
[5] = tested on: Acinetobacter baumannii (Egypt, V9)
[6] = tested on: Acinetobacter lwoffii (Egypt, V10)
[7] = Pseudomonas aeruginosa, Table 8, V2, G-block (OligoCF-5/20) 0%
[8] = Pseudomonas aeruginosa, Table 8, V2, G-block (OligoCF-5/20) 2%
[9] = Pseudomonas aeruginosa, Table 8, V2, G-block (OligoCF-5/20) 6%
[10] = Pseudomonas aeruginosa, Table 8, V2, G-block (OligoCF-5/20) 10%
[11] = Table 8, G-block (OligoCF-5/20) 0%
[12] = Table 8, G-block (OligoCF-5/20) 2%
[13] = Table 8, G-block (OligoCF-5/20) 6%
[14] = Table 8, G-block (OligoCF-5/20) 10%
[15] = ATCCBAA246|LMG18941, Table 8, G-block (OligoCF-5/20) 0%
[16] = ATCCBAA246|LMG18941, Table 8, G-block (OligoCF-5/20) 2%
[17] = ATCCBAA246|LMG18941, Table 8, G-block (OligoCF-5/20) 6%
[18] = ATCCBAA246|LMG18941, Table 8, G-block (OligoCF-5/20) 10%
[19] = Table 9, G-block (OligoCF-5/20) 0%
[20] = Table 9, G-block (OligoCF-5/20) 2%
[21] = Table 9, G-block (OligoCF-5/20) 6%
[22] = Table 9, G-block (OligoCF-5/20) 10%

Question: With `CC[C@H]1OC(=O)[C@H](C)[C@@H](O[C@H]2C[C@@](C)(OC)[C@@H](O)[C@H](C)O2)[C@H](C)[C@@H](O[C@@H]2O[C@H](C)C[C@H](N(C)C)[C@H]2O)[C@](C)(O)C[C@@H](C)[C@@H]2N[C@@H](COCCOC)O[C@H]([C@H]2C)[C@]1(C)O` [Dirithromycin] as the compound, how does the MIC [1, 7] read?
Answer: > 512 µg/mL

Question: And the MIC [1, 8]?
Answer: > 512 µg/mL

Question: And the MIC [1, 9]?
Answer: 512 µg/mL (≈ 613 µM)

Question: And the MIC [1, 10]?
Answer: 512 µg/mL (≈ 613 µM)

Question: What about the MIC [2, 11] of the same compound?
Answer: > 512 µg/mL

Question: And the MIC [2, 12]?
Answer: > 512 µg/mL

Question: What about the MIC [2, 13] of the same compound?
Answer: 512 µg/mL (≈ 613 µM)

Question: What about the MIC [2, 14] of the same compound?
Answer: 256 µg/mL (≈ 307 µM)

Question: What about the MIC [3, 15] of the same compound?
Answer: 512 µg/mL (≈ 613 µM)

Question: And the MIC [3, 16]?
Answer: 256 µg/mL (≈ 307 µM)

Question: And the MIC [3, 17]?
Answer: 256 µg/mL (≈ 307 µM)

Question: And the MIC [3, 18]?
Answer: 256 µg/mL (≈ 307 µM)

Question: And the MIC [4, 19]?
Answer: < 2 µg/mL

Question: What about the MIC [4, 20] of the same compound?
Answer: < 2 µg/mL

Question: What about the MIC [4, 21] of the same compound?
Answer: < 2 µg/mL

Question: What about the MIC [4, 22] of the same compound?
Answer: < 2 µg/mL

Question: And the MIC [5, 19]?
Answer: 4 µg/mL (≈ 4.79 µM)

Question: And the MIC [5, 20]?
Answer: < 1 µg/mL

Question: And the MIC [5, 21]?
Answer: < 1 µg/mL

Question: What about the MIC [5, 22] of the same compound?
Answer: < 1 µg/mL

Question: And the MIC [6, 19]?
Answer: < 1 µg/mL

Question: And the MIC [6, 20]?
Answer: < 1 µg/mL

Question: What about the MIC [6, 21] of the same compound?
Answer: < 1 µg/mL

Question: What about the MIC [6, 22] of the same compound?
Answer: < 1 µg/mL

Question: For `C[C@@H](O)[C@H]1C(=O)N2C(C(=O)O)=C(SCCN=CN)C[C@H]12` [Imipenem], which MIC ([1]; Pseudomonas aeruginosa) is on record?
Answer: 128 µg/mL (≈ 428 µM)

Question: What about the MIC [1, 7] of the same compound?
Answer: 256 µg/mL (≈ 855 µM)

Question: And the MIC [1, 8]?
Answer: 256 µg/mL (≈ 855 µM)

Question: And the MIC ([1]; Table 8, V2, G-block (OligoCF-5/20) 10%)?
Answer: 128 µg/mL (≈ 428 µM)

Question: What about the MIC [2, 11] of the same compound?
Answer: 128 µg/mL (≈ 428 µM)

Question: What about the MIC [2, 12] of the same compound?
Answer: 128 µg/mL (≈ 428 µM)

Question: And the MIC [2, 13]?
Answer: 64 µg/mL (≈ 214 µM)

Question: And the MIC [2, 14]?
Answer: 16 µg/mL (≈ 53.4 µM)

Question: What about the MIC [3, 15] of the same compound?
Answer: > 16 µg/mL

Question: And the MIC [3, 16]?
Answer: > 16 µg/mL

Question: And the MIC [3, 17]?
Answer: > 16 µg/mL

Question: And the MIC [3, 18]?
Answer: > 16 µg/mL

Question: What about the MIC [4, 19] of the same compound?
Answer: 2 µg/mL (≈ 6.68 µM)

Question: And the MIC [4, 20]?
Answer: 2 µg/mL (≈ 6.68 µM)

Question: And the MIC [4, 21]?
Answer: 2 µg/mL (≈ 6.68 µM)

Question: And the MIC [4, 22]?
Answer: < 2 µg/mL

Question: And the MIC [5, 19]?
Answer: 2 µg/mL (≈ 6.68 µM)

Question: And the MIC [5, 20]?
Answer: < 2 µg/mL

Question: What about the MIC [5, 21] of the same compound?
Answer: 2 µg/mL (≈ 6.68 µM)

Question: What about the MIC [5, 22] of the same compound?
Answer: < 2 µg/mL

Question: What about the MIC [6, 19] of the same compound?
Answer: < 2 µg/mL

Question: And the MIC [6, 20]?
Answer: < 2 µg/mL

Question: What about the MIC [6, 21] of the same compound?
Answer: < 2 µg/mL

Question: What about the MIC [6, 22] of the same compound?
Answer: < 2 µg/mL

Question: Which MIC [1, 7] does the source give for `CC[C@H]1OC(=O)[C@H](C)[C@@H](O[C@H]2C[C@@](C)(OC)[C@@H](O)[C@H](C)O2)[C@H](C)[C@@H](O[C@@H]2O[C@H](C)C[C@H](N(C)C)[C@H]2O)[C@](C)(O)C[C@@H](C)/C(=N\OCOCCOC)[C@H](C)[C@@H](O)[C@]1(C)O` [Roxithromycin] here?
Answer: > 512 µg/mL

Question: What about the MIC [1, 8] of the same compound?
Answer: > 512 µg/mL

Question: And the MIC [1, 9]?
Answer: > 512 µg/mL

Question: What about the MIC [1, 10] of the same compound?
Answer: > 512 µg/mL

Question: What about the MIC [2, 11] of the same compound?
Answer: > 512 µg/mL

Question: What about the MIC [2, 12] of the same compound?
Answer: > 512 µg/mL

Question: And the MIC [2, 13]?
Answer: 512 µg/mL (≈ 612 µM)

Question: And the MIC [2, 14]?
Answer: 256 µg/mL (≈ 306 µM)

Question: And the MIC [3, 15]?
Answer: 256 µg/mL (≈ 306 µM)

Question: What about the MIC [3, 16] of the same compound?
Answer: 256 µg/mL (≈ 306 µM)

Question: What about the MIC [3, 17] of the same compound?
Answer: 256 µg/mL (≈ 306 µM)

Question: What about the MIC [3, 18] of the same compound?
Answer: 128 µg/mL (≈ 153 µM)

Question: What about the MIC [4, 19] of the same compound?
Answer: 4 µg/mL (≈ 4.78 µM)

Question: What about the MIC [4, 20] of the same compound?
Answer: < 2 µg/mL

Question: And the MIC [4, 21]?
Answer: < 2 µg/mL

Question: And the MIC [4, 22]?
Answer: < 2 µg/mL

Question: What about the MIC [5, 19] of the same compound?
Answer: 8 µg/mL (≈ 9.56 µM)

Question: And the MIC [5, 20]?
Answer: 4 µg/mL (≈ 4.78 µM)

Question: And the MIC [5, 21]?
Answer: 4 µg/mL (≈ 4.78 µM)

Question: And the MIC [5, 22]?
Answer: 2 µg/mL (≈ 2.39 µM)

Question: And the MIC [6, 19]?
Answer: 4 µg/mL (≈ 4.78 µM)

Question: And the MIC [6, 20]?
Answer: < 1 µg/mL

Question: And the MIC [6, 21]?
Answer: < 1 µg/mL

Question: What about the MIC [6, 22] of the same compound?
Answer: < 1 µg/mL
